Data set [1] can be described thus: Stability in aqueous solution (LC-MS). Format: physicochemical. Conditions: water, room temperature. As for the experimental part: Dimerization was performed by elongation of 16 with 3-tritylthiopropionic acid, and reaction with 3,6-dichlorotetrazine following a biphasic protocol after cleavage from the solid support. Finally, addition of the chelator DOTA-TCO 26 was performed via the inverse electron-demand Diels–Alder reaction (IEDDA) to yield the dimeric product 27. However, it was noticed that 27 was not stable in aqueous solution, with degradation observed by LC-MS 20 min after incubation in water at room temperature. […] We hypothesized that it could originate from intramolecular interaction between the sulfur and the carboxylic acid group of the aspartic acid. Therefore, we modified the design of the dimer to include a longer spacer between 16 and the tetrazine. We replaced the 3-mercaptopropionic acid with a 6-mercaptohexanoic acid spacer. The resulting compound 30 (Scheme 2), obtained after dimerization and IEDDA reaction, was radiolabeled with In-111 and obtained in high RCY (>99%) and RCP (92.3%). It was stable in aqueous media and in the radiolabeling conditions, but also in PBS and mouse serum (>90% intact [^111In]In-30 at 24 h; Figure S7).

The nature of data set [2]: Stability in mouse serum, radio-HPLC. The class given is in vitro ADME. Conditions: 24 h post-incubation, 37 °C, indium-111 labeled, intact fraction. As for the experimental part: [^111In]In-22 or [^111In]In-30 (~35 MBq, 70 µL) was mixed with 330 μL of mouse serum and incubated at 37 °C for up to 24 h. After 1, 4, and 24 h incubation, 50 μL of the mouse serum solution was added to a separate vial containing 50 µL of acetonitrile. The sample was centrifuged at 5000× g for 20 min. The supernatant was analyzed by radio-HPLC.

Data set [3] deals with T1, Recombinant human PSMA (rhPSMA) (Homo sapiens, UniProt Q04609).
T1 construct: purchased R&D systems, Abingdon, UK
T1 sequence (Q04609 whole entry): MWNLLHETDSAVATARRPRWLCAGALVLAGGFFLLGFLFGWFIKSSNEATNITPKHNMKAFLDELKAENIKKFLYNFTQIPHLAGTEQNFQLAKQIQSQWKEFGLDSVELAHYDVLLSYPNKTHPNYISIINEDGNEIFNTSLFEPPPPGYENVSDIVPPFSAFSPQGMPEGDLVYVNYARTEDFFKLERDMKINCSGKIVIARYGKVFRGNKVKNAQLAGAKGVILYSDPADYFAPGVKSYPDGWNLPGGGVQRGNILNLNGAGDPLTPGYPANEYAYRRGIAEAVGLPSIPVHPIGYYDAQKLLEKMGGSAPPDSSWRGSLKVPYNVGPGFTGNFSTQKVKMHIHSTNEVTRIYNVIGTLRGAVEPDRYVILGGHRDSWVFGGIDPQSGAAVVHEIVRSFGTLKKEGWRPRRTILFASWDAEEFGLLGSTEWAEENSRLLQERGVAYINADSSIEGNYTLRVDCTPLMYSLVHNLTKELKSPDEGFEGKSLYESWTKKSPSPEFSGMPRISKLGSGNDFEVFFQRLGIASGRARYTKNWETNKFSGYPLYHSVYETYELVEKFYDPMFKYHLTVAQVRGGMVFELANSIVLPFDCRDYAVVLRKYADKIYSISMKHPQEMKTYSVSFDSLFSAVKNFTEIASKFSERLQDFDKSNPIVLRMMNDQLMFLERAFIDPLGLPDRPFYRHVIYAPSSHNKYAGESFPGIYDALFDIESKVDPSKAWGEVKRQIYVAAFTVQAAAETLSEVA
The data set is described as follows: NAALADase assay (competitive inhibition, Amplex Red glutamate readout). The class given is biochemical. Conditions: rhPSMA, substrate Ac-Asp-Glu, 1 h 37 °C. Here is the method:
Recombinant human PSMA (rhPSMA; R&D systems, Abingdon, UK) was diluted in assay buffer (50 mM HEPES, 0.1 M NaCl, pH 7.5) to 0.4 μg/mL. The substrate Ac–Asp–Glu (40 μM) was mixed with the synthesized derivatives and with a reference (PSMA-617) at concentrations ranging from 10^−6 to 10^−13 M in a final volume of 12.5 μL assay buffer. The mixtures were combined with 12.5 μL of the rhPSMA solution and incubated for 1 h at 37 °C in 384-well black polystyrene microplates (ThermoFisher, Bleiswijk, The Netherlands). The amount of glutamate released was measured by incubating with 25 μL of a working solution of the Amplex Red glutamic acid kit (ThermoFisher, Bleiswijk, The Netherlands) at 37 °C for 30 min. Fluorescence was measured with a HIDEX Sense Optical System (Goedereede, The Netherlands) with excitation at 535 nm and emission at 590 nm. Data were normalized and analyzed using a one-site total binding regression with GraphPad Prism v9.0 (GraphPad Software, San Diego, CA, USA).

Data set [4] is described as follows: Stability in phosphate-buffered saline (PBS), radio-HPLC. Format: physicochemical. Conditions: 24 h post-incubation, 37 °C, indium-111 labeled, intact fraction. As for the experimental part: [^111In]In-22 or [^111In]In-30 (~10 MBq, 20 µL) was mixed with 80 μL of PBS (0.01 M, pH 7.4) and incubated at 37 °C for up to 24 h. A sample of the PBS solution was loaded directly onto the radio-HPLC at 1, 4, and 24 h post-incubation.

Data set [5] addresses PSMA. More on the design: method as in PMID 30097503. Particulars: cited from earlier work.
Data set [6] deals with PSMA. On the set-up: method as in PMID 27279903. Particulars: PSMA-binding ligand with different chelators; cited from earlier work.

Values joined by “and” are separate entries in the source; they are usually repeats but may differ in a detail not shown here. Identical values can stand only once. Bounds are passed on as bounds.

Take `CC(C)CC(NC(=O)C(Cc1ccccc1)NC(=O)C(CC(=O)O)NC(=O)CCCCCSC1=NNC(SCCCCCC(=O)NC(CC(=O)O)C(=O)NC(Cc2ccccc2)C(=O)NC(CC(C)C)C(O)CC(=O)NCCCCCC(=O)NCCCCC(NC(=O)NC(CCC(=O)O)C(=O)O)C(=O)O)=C2CCC(OC(=O)NCCCNC(=O)CN3CCN(CC(=O)O)CCN(CC(=O)O)CCN(CC(=O)O)CC3)CCCC12)C(O)CC(=O)NCCCCCC(=O)NCCCCC(NC(=O)NC(CCC(=O)O)C(=O)O)C(=O)O` [Compound 30, [EuK(Ahx-Sta-L-Phe-Asp-SHx)]2-Tz-TCO-DOTA]: in data set [1], the “Stability in aqueous solution” value is “stable”. The “Stability in Mouse Serum (%)” value in data set [2] is on record as above 90%. Further, in data set [3], the IC50 (as a rule, the concentration at which inhibition is half-maximal) is 1.05 nM and 1 to 1.6 nM. Further, the “Stability in PBS (%)” value in data set [4] is reported as above 90%.
For `N[C@@H](CCC(=O)O)C(=O)[O-].[Na+]` [Monosodium glutamate], the inhibition constant Ki (in general, the equilibrium dissociation constant of an inhibitor or competing ligand from its target) on PSMA [5] was 900 nM.
For the compound `O=C(O)CCC(NC(=O)NC(CCCCNC(=O)C(Cc1ccc2ccccc2c1)NC(=O)C1CCC(CNC(=O)CCC(C(=O)O)N2CCN(CC(=O)O)CCN(CC(=O)O)CC2)CC1)C(=O)O)C(=O)O` (stereo not drawn) [NODAGA-conjugate], in the data set with PSMA [6], the Internalization rate was 48.5 ± 16.4%.

(Values after paper PMC10223019, “Preclinical Evaluation of a PSMA-Targeting Homodimer with an Optimized Linker for Imaging of Prostate Cancer” (Molecules, 2023).)
